From patent US20260327264A1, “PEPTIDE INHIBITORS OF INTERLEUKIN-23 RECEPTOR” (Zealand Pharma A/S, priority 2023, published 2026)
Like-named read-outs stand apart in the source and are kept apart here. *1 amine or outer side, *2 acyl side, *3 side chain or, on linkers, in order; H or OH if unused. Where a SMILES comes first, the peptide text is derived from it. Bridges are numbered along the chain shown (N, C = ends). [ ]: non-standard residue; d: D form. 2Nal = N[C@@H](Cc1ccc2ccccc2c1)C(=O)O; AEF = NCCOc1ccc(C[C@H](N)C(=O)O)cc1; X1 = O=C(Cc1ccc(CN[*:1])cc1)[*:2]; 3Pal = N[C@@H](Cc1cccnc1)C(=O)O; αMeL = CC(C)C[C@](C)(N)C(=O)O; β3hL = CC(C)C[C@H](N)CC(=O)O; Dab = NCC[C@H](N)C(=O)O

Key:
human IL-23R = biological target: T1, human IL-23R (Homo sapiens, UniProt Q5VWK5); assay: Binding assay: displacement of fluorophore (TAMRA)-labelled reference compound from human IL-23R (BRET, Nluc-IL23R fusion protein membranes); settings: for Emax: read-out: % displacement (hIL-23R binding)
T1 construct: Nanoluc luciferase (Nluc); secretion signal encoded by the plasmid (not specified); expressed in transfected cells; crude membranes used in the assay
T1 sequence (Q5VWK5 22-629): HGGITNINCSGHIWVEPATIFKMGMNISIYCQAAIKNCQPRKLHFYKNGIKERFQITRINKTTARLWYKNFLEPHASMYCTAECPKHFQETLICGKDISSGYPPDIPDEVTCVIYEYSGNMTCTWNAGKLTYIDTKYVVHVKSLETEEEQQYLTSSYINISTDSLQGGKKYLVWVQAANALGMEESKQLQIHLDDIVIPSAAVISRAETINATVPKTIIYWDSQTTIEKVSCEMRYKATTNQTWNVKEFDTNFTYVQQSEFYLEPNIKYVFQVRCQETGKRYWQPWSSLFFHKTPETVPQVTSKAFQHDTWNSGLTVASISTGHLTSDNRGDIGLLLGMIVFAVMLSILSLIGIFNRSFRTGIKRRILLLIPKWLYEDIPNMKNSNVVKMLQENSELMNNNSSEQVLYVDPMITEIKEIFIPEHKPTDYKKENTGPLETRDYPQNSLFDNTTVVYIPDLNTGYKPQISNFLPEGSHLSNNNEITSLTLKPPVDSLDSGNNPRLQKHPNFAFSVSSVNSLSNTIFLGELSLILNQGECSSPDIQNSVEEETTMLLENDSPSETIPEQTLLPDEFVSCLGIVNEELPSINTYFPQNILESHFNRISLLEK

[1] = system: IL-23 mediated STAT3 signalling (DB cells); assay: Functional inhibition of IL-23 mediated STAT3 signalling (phospho-STAT3 Tyr705) in DB cells; type: cell-based, human; settings: for hIL-23 (pSTAT3) antagonist % inhibition: Table 3-2, maximal inhibitory response, EC80 of hIL-23
Procedure, shortened: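 Phospho-STAT3 in lysed DB cells quantified by MSD kit after 90 min exposure to EC80 human IL-23, following 15 min compound pretreatment (37° C, 5% CO2). IC50 and maximal inhibition derived from curves normalized between IL-23-only and buffer-only controls.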

[2] = Peptide stability in simulated gastric fluid (SGF); type: in vitro ADME; settings: pig, pH 1.2, pepsin, 37° C.
Procedure, shortened: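 Peptide (10 μM final) incubated at 37 °C in USP SGF, pH 1.2 with porcine pepsin 3.2 g/L; aliquots at 0, 1 and 4 h quenched in acidified acetonitrile.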

[3] = Peptide stability in simulated intestinal fluid (SIF); type: in vitro ADME; settings: pig, 10 μM
Protocol: SGF and SIF were prepared based on the United States Pharmacopeia specifications (Test Solutions, United States Pharmacopeia 35, NF 30, 2012). SGF was prepared by dissolving sodium chloride (0.2 g) in 50 mL of water. A volume of 0.7 mL of 10 M HCl was added to adjust the pH of the solution to 1.2 and the volume made up to 100 mL with water. 64 mg porcine pepsin (P7125, Sigma Aldrich) was gently dissolved into 20 mL preheated (37° C.) solution (3.2 g/L) immediately prior to the incubation. SIF was prepared by dissolving monobasic potassium phosphate (0.68 g) in 50 mL of water and adjusting the pH to 6.8 with 1 M NaOH. The volume was subsequently made up to 100 mL with water. 200 mg porcine pancreatin (P1625, Sigma Aldrich) was gently dissolved into 20 mL preheated (37° C.) solution (10 g/L) immediately prior to the incubation.
To initiate the incubations, 20 μL of peptide stock solution in 50% v/v isopropanol was deposited at the bottom of a well plate and 580 μL matrix solution was added to give a final substrate concentration of 10 μM. The incubation was performed at 37° C. with gentle shaking. 70 μL aliquots were removed at 0, 1 and 4 hours and quenched into 210 μL ice-cold precipitant solution (95% v/v acetonitrile with 0.1% v/v formic acid). After the last timepoint, the sampling plate was mixed for 10 min on a shaking table and centrifuged 10 min at 2200 g. 70 μL resulting supernatant was diluted with 150 μL water, mixed and centrifugated before analysis by liquid chromatography high resolution mass spectrometry. The zero sample was reinjected after the 4-hour sample to confirm that no drift in instrument sensitivity had occurred during the run. Percent remaining at each timepoint was calculated relative to timepoint zero based on absolute peak areas.
Compounds with a SIF stability (after 4 h) above 70% are considered highly SIF stable. Compounds with a SIF stability (after 4 h) between 30-70% (including 30% and 70%) are considered moderately SIF stable. Compounds with a SIF stability (after 4 h) below 30% are considered SIF unstable. SIF stability values above 100% are due to assay uncertainty and indicate the compound has not degraded.

[4] = Table 3-2, EC80 of hIL-23, read-out: hIL-23 (pSTAT3) antagonist IC50
[5] = simulated intestinal fluid, SIF, pH 6.8, pancreatin, 37° C.
[6] = simulated intestinal fluid, SIF, pH 6.8, pancreatin, 37° C., read-out: SIF (% remaining 4 h)
[7] = EC80 of hIL-23, read-out: IC50 (pSTAT3)

## CNC(=O)[C@H](Cc1cccnc1)NC(=O)[C@H](CCN)NC(=O)[C@@H]1CCC(=O)NCc2ccc(cc2)CC(=O)N[C@@H](CO)C(=O)N[C@H]2CCC(=O)NCC[C@H](NC(=O)[C@H](CCCCNC(C)=O)NC(=O)[C@H](Cc3c[nH]c4ccccc34)NC2=O)C(=O)N[C@@H](Cc2ccc(OCCN)cc2)C(=O)N[C@@H](Cc2ccc3ccccc3c2)C(=O)N[C@@](C)(CC(C)C)C(=O)N1 [Compound 24, [4-Aminomethyl-phenylacetyl](1c)*SE(2c)W[K(Ac)][Dab](2c)[Y(2-aminoethoxy)][2-Nal][2-Me-Leu]E(1c)[Dab][3-(3-Pyridyl)-Ala]-[NHMe]] ([X1]SEWK(Ac)[Dab][AEF][2Nal][αMeL]E[Dab][3Pal]-NHMe; lactam 3-6, N-10)
Human IL-23R
  Emax: 97%
[1]; [4]
  IC50: 0.058 nM
[1]
  hIL-23 (pSTAT3) antagonist % inhibition: 98%
[2]
  remaining at 1 h, 10 µM: 93%
  remaining at 4 h, 10 µM: 90%
[3]; [5]
  remaining at 1 h, 10 µM: 91%
[3]; [6]
  remaining at 4 h, 10 µM: 89%

## CC(C)C[C@@H]1NC(=O)[C@H](Cc2c[nH]c3ccccc23)NC(=O)[C@H](Cc2c[nH]c3ccccc23)NC(=O)[C@@H]2CSCC(=O)CSC[C@H](NC(=O)[C@H]([C@@H](C)O)NC(=O)[C@@H](NC(=O)CN)CSCC(=O)CSC[C@@H](C(=O)N[C@@H](CO)C(N)=O)NC1=O)C(=O)N[C@@H](Cc1c[nH]c3ccccc13)C(=O)N[C@@H](CCC(=O)O)C(=O)N2 (single isomer, unassigned) [I1 (isomer 3), H-GC(1a)TC(2a)WEC(2a)WWLC(1a)S-[NH2], reference compound]
Human IL-23R
  Emax: 105%
[1]; [4]
  IC50: > 1000 nM
[1]
  hIL-23 (pSTAT3) antagonist % inhibition: 83%
[2]
  remaining at 1 h, 10 µM: 92%
  remaining at 4 h, 10 µM: 94%
[3]; [5]
  remaining at 1 h, 10 µM: 0%
[3]; [6]
  remaining at 4 h, 10 µM: 0%

## CNC(=O)[C@H](Cc1cccnc1)NC(=O)[C@H](CCN)NC(=O)[C@@H]1CCC(=O)NCc2ccc(cc2)CC(=O)N[C@@H](CO)C(=O)N[C@H]2CCC(=O)NCC[C@H](NC(=O)[C@H](CCC(=O)N(C)C)NC(=O)[C@H](Cc3c[nH]c4ccccc34)NC2=O)C(=O)N[C@@H](Cc2ccc(OCCN)cc2)C(=O)N[C@@H](Cc2ccc3ccccc3c2)C(=O)N[C@@](C)(CC(C)C)C(=O)N1 [Compound 30, [4-Aminomethyl-phenylacetyl](1c)*SE(2c)W[Q(2Me)][Dab](2c)[Y(2-aminoethoxy)][2-Nal][2-Me-Leu]E(1c)[Dab][3-(3-Pyridyl)-Ala]-[NHMe]] ([X1]SEWE(NMe2)[Dab][AEF][2Nal][αMeL]E[Dab][3Pal]-NHMe; lactam 3-6, N-10)
Human IL-23R
  Emax: 104%
[1]; [4]
  IC50: 0.077 nM
[1]
  hIL-23 (pSTAT3) antagonist % inhibition: 103%
[2]
  remaining at 1 h, 10 µM: 92%
  remaining at 4 h, 10 µM: 89%
[3]; [5]
  remaining at 1 h, 10 µM: 94%

## CNC(=O)[C@H](Cc1cccnc1)NC(=O)[C@H](CCO)NC(=O)[C@@H]1CCC(=O)NCc2ccc(cc2)CC(=O)N[C@@H](CO)C(=O)N[C@H]2CCC(=O)NCC[C@H](NC(=O)[C@H](CCC(N)=O)NC(=O)[C@H](Cc3c[nH]c4ccccc34)NC2=O)C(=O)N[C@@H](Cc2ccc(OCCN)cc2)C(=O)N[C@@H](Cc2ccc3ccccc3c2)C(=O)N[C@@](C)(CC(C)C)C(=O)N1 [Compound 36, [4-Aminomethyl-phenylacetyl](1c)*SE(2c)WQ[Dab](2c)[Y(2-aminoethoxy)][2-Nal][2-Me-Leu]E(1c)[hSer][3-(3-Pyridyl)-Ala]-[NHMe]]
Human IL-23R
  Emax: 94%
[1]; [4]
  IC50: 0.034 nM
[1]
  hIL-23 (pSTAT3) antagonist % inhibition: 103%
[2]
  remaining at 4 h, 10 µM: 103%
[3]; [5]
  remaining at 1 h, 10 µM: 99%

## CC(C)C[C@@H](CC(N)=O)NC(=O)[C@H](Cc1cccnc1)NC(=O)[C@H](CCN)NC(=O)[C@@H]1CCC(=O)NCc2ccc(cc2)CC(=O)N[C@@H](CO)C(=O)N[C@H]2CCC(=O)NCC[C@H](NC(=O)[C@H](CCC(N)=O)NC(=O)[C@H](Cc3c[nH]c4ccccc34)NC2=O)C(=O)N[C@@H](Cc2ccc(OCCN)cc2)C(=O)N[C@@H](Cc2ccc3ccccc3c2)C(=O)N[C@@](C)(CC(C)C)C(=O)N1 [Compound 11, [4-Aminomethyl-phenylacetyl](1c)*SE(2c)WQ[Dab](2c)[Y(2-aminoethoxy)][2-Nal][2-Me-Leu]E(1c)[Dab][3-(3-Pyridyl)-Ala][beta-hLeu]-[NH2]] ([X1]SEWQ[Dab][AEF][2Nal][αMeL]E[Dab][3Pal][β3hL]-NH2; lactam 3-6, N-10)
Human IL-23R
  IC50: 0.024 nM
  Emax: 103%
[1]; [7]
  IC50: 0.68 nM
[1]; [4]
  IC50: 0.68 nM
[1]
  hIL-23 (pSTAT3) antagonist % inhibition: 98%
[2]
  remaining at 1 h, 10 µM: 98%
  remaining at 4 h, 10 µM: 97%
[3]; [5]
  remaining at 1 h, 10 µM: 101%
[3]; 37 °C, simulated intestinal fluid pH 6.8 with porcine pancreatin, read-out: SIF (% after 4 h), intact peptide remaining
  remaining at 4 h, 10 µM: 102%

## CSCC[C@H](NC(=O)[C@@H]1CSCC(=O)CSC[C@H](NC(=O)[C@@H](N)CCC(=O)O)C(=O)N[C@@H](Cc2c[nH]c3ccccc23)C(=O)N[C@@H](CC(C)C)C(=O)N[C@H]2CSCC(=O)CSC[C@H](NC(=O)[C@H](CC(N)=O)NC(=O)[C@H](CCCNC(=N)N)NC(=O)[C@H](Cc3ccc(O)cc3)NC(=O)[C@H](Cc3ccc(O)cc3)NC2=O)C(=O)N[C@@H](CC(N)=O)C(=O)N1)C(N)=O (single isomer, unassigned) [I4 (isomer 3), H-EC(4a)WLC(5a)YYRNC(5a)NC(4a)M-[NH2], reference compound]
Human IL-23R
  Emax: 84%
[1]; [4]
  IC50: > 1000 nM
[1]
  hIL-23 (pSTAT3) antagonist % inhibition: 23%
[2]
  remaining at 1 h, 10 µM: 99%
  remaining at 4 h, 10 µM: 99%
[3]; [5]
  remaining at 1 h, 10 µM: 0%
[3]; [6]
  remaining at 4 h, 10 µM: 0%

## CC(C)C[C@]1(C)NC(=O)[C@H](Cc2ccc3ccccc3c2)NC(=O)[C@H](Cc2ccc(OCCN)cc2)NC(=O)[C@@H]2CCNC(=O)CC[C@H](NC(=O)[C@H](CO)NC(=O)Cc3ccc(cc3)CNC(=O)CC[C@@H](C(=O)N[C@@H](CCN)C(=O)NCCCCc3cccnc3)NC1=O)C(=O)N[C@@H](Cc1c[nH]c3ccccc13)C(=O)N[C@@H](CCC(N)=O)C(=O)N2 [Compound 6, [4-Aminomethyl-phenylacetyl](1c)*SE(2c)WQ[Dab](2c)[Y(2-aminoethoxy)][2-Nal][2-Me-Leu]E(1c)[Dab]-[NH-(4-(pyridin-3-yl)butanyl)]]
Human IL-23R
  IC50: 0.037 nM
  Emax: 103%
[1]; [7]
  IC50: 3.2 nM
[1]; [4]
  IC50: 3.2 nM
[1]
  hIL-23 (pSTAT3) antagonist % inhibition: 99%
[2]
  remaining at 1 h, 10 µM: 110%
  remaining at 4 h, 10 µM: 108%
[3]; [5]
  remaining at 1 h, 10 µM: 97%
